The test system of experiment [1] is Female CFLP mice. In words: Effect on energy expenditure and food intake of mice. It counts as in vivo. The settings on record: Mus musculus; for response vs control in vivo at 25.3 mg/kg / response vs control in vivo at 28.3 mg/kg / response vs control in vivo at 24.3 mg/kg / response vs control in vivo at 26.1 mg/kg / response vs control in vivo at 26.3 mg/kg / response vs control in vivo at 2.61 mg/kg / response vs control in vivo at 23.9 mg/kg / response vs control in vivo at 27.3 mg/kg / response vs control in vivo at 29.5 mg/kg / response vs control in vivo at 26.9 mg/kg / response vs control in vivo at 23.6 mg/kg / response vs control in vivo at 24.6 mg/kg / response vs control in vivo at 25.6 mg/kg / response vs control in vivo at 23.4 mg/kg: po, 21 h; for response vs control in vivo at 23.1 mg/kg: 23.1 mg/kg po, mice, 21 hours after dosing, % of mice dosed with water.
Experimental: Female CFLP mice each weighing approximately 24 g, were given food and water ad lib before and during the experiment. The compounds were dissolved in water by addition of one mole of hydrochloric acid per mole of compound and these solutions were administered orally to each of 12 mice. A further 12 mice were dosed orally with water. The mice were placed in boxes through which air was drawn and the oxygen content of the air leaving the boxes was measured. […] The food intake of the mice was measured over this same period of 21 hours. The results are expressed as a percentage of the mean food intake or rate of energy expenditure of the mice dosed with water.

Experiment [2] concerns Rat hearts. In words: Cardiac activity: rat hearts perfused by the Langendorff procedure. The settings on record: for Emax: reference standard, maximum response, no dose given. Here is the method:
Rat hearts were perfused by the Langendorff procedure as follows:- • Hearts were dissected free within 30 seconds of death and reverse perfused via the aorta and coronary vessels with Krebs-Ringer bicarbonate solution (pH 7.4, 37°C) gassed with 95% oxygen:5% carbon dioxide at a flow rate between 8-12 cm^3/minute. Responses were observed after injection of drug dissolved in isotonic saline into the perfusion media.
Results are expressed as a percentage of the maximum response due to salbutamol.

The test system of experiment [3] is Female CFLP mice. Put plainly: Anti-hyperglycaemic activity: subcutaneous glucose load in fasted mice, area under blood glucose curve. The settings on record: glucose 1 g/kg sc, 2 hour period, vs water control. It counts as in vivo. On the procedure: Female CFLP mice, each weighing approximately 25 g, were fasted for 24 hours prior to the study. The compounds under study were administered orally as an aqueous solution to each of 6 mice. 6 mice were given water as a control. 30 minutes later a blood sample (20 µl) was obtained from the tail for the analysis of blood glucose. Immediately after taking this blood sample, glucose (1 g/kg body weight) was administered subcutaneously to each mouse. Blood samples were then obtained from each mouse at 30 minute intervals for 120 minutes.
Compounds that produced a significant (P<0.05) reduction of blood glucose, compared with control mice given water, at any time interval, were considered active. The area under the blood glucose curve over the 2 hour period after the administration of the glucose was calculated for each compound and compared with the value for control animals.

Experiment [4] relates to genetically obese mice. Put plainly: Anti-obesity activity: carcass composition after 28 days of daily dosing. It counts as in vivo. Here is the method:
The compounds were administered by oral gavage in water or carboxymethyl-cellulose suspension to genetically obese mice daily for 28 days. At the end of the time the carcass composition was determined. The results obtained were as follows:-

Where [5] appears, read: read-out: Mean Energy Expenditure (%).
The mark [6] stands for this setting: Rattus norvegicus, read-out: Heart Rate.
Where [7] appears, read: Rattus norvegicus, read-out: Heart Tension.
Where [8] appears, read: 10 μg added to perfusate, perfused rat heart, read-out: Heart Rate.
Setting [9] is: 10 μg added to perfusate, perfused rat heart, read-out: Heart Tension.
Where [10] appears, read: 30 μg added to perfusate, perfused rat heart, read-out: Heart Rate.
Where [11] appears, read: 30 μg added to perfusate, perfused rat heart, read-out: Heart Tension.

Counter-ions that a name gives are not always drawn. Like-named read-outs stand apart in the source and are kept apart here.

`CNCCOc1ccc(CC(C)NCC(O)c2cccc(Cl)c2F)cc1.Cl.Cl` (stereo not drawn) [Example 11, N-[2-(4-(2-Methylaminoethoxy)phenyl)-1-methylethyl]-2-hydroxy-2-(2-fluoro-3-chlorophenyl)ethanamine dihydrochloride]: the response vs control in vivo at 25.3 mg/kg in experiment [1] (setting [5]) was 148%; in experiment [1] (read-out: Mean Food Intake (%)) it was 79%. Also, the Emax at 0.01 mg in experiment [2] (setting [6]) was determined as 45%; in experiment [2] (setting [7]), 60%. For the same compound, the “Reduction in area under Blood glucose curve (%)” value (“Reduction in area … (%)” for short) in experiment [3] (1 μ moles/kg po) is recorded as 64%.

`Br.Br.CNCCOc1ccc(CC(C)NCC(O)c2ccccc2F)cc1` (stereo not drawn) [Example 7, N-[2-(4-(2-Methylaminoethoxy)phenyl)-1-methylethyl]-2-hydroxy-2-(2-fluorophenyl)ethanamine dihydrobromide]: the response vs control in vivo at 28.3 mg/kg in experiment [1] (setting [5]) amounted to 125%; in experiment [1] (read-out: Mean Food Intake (%)) it was 109%. The Emax at 0.01 mg in experiment [2] (setting [6]) is 73%; in experiment [2] (setting [7]) it was 18%. Moreover, the “Reduction in area … (%)” value in experiment [3] (1 μ moles/kg po) amounted to 33%.

On to `CNCCOc1ccc(CC(C)NCC(O)c2cccc(Cl)c2)cc1.Cl.Cl` (stereo not drawn) [Example 22, N-[2-(4-(2-Methylaminoethoxy)phenyl)-1-methylethyl]-2-hydroxy-2-(3-chlorophenyl)ethanamine dihydrochloride], for which the response vs control in vivo at 24.3 mg/kg in experiment [1] (setting [5]) amounted to 124%; in experiment [1] (read-out: Mean Food Intake (%)), 84%. In addition, the Emax at 0.03 mg in experiment [2] (setting [6]) came out at 57%; in experiment [2] (setting [7]), 22%. For the same compound, the “Reduction in area … (%)” value in experiment [3] (1 μ moles/kg po) amounted to 43%.

On to `CNCCOc1ccc(CC(C)NCC(O)c2cccc(C(F)(F)F)c2)cc1` (stereo not drawn) [Example 1, N-[2-(4-(2-Methylaminoethoxy)phenyl)-1-methylethyll-2-hydroxy-2-(3-trifluoromethylphenyl)ethanaminedihydrochloride], for which the response vs control in vivo at 26.1 mg/kg in experiment [1] (setting [5]) was found to be 129%; in experiment [1] (read-out: Mean Food Intake (%)), 98%. In addition, the figures for the Emax at 0.01 mg in experiment [2] (setting [8]) and in experiment [2] (setting [9]) were 0% and 7%, respectively. Further, in experiment [3] (1 μ moles/kg po), the “Reduction in area … (%)” value worked out at 33%.

Regarding `CC(Cc1ccc(OCCNCc2ccccc2)cc1)NCC(O)c1cccc(C(F)(F)F)c1` (stereo not drawn) [Example 18, N-[2-(4-(2-Benzylaminoethoxy)phenyl)-1-methylethyl]-2-hydroxy-2-(3-trifluoromethylphenyl)ethanamine], the response vs control in vivo at 26.3 mg/kg turned out to be 131% in experiment [1] (setting [5]) and 80% in experiment [1] (read-out: Mean Food Intake (%)). The Emax at 0.03 mg came to 12% in experiment [2] (setting [10]) and 7% in experiment [2] (setting [11]). In addition, the “Reduction in area … (%)” value in experiment [3] (2.5 μ moles/kg po) turned out to be 50%.

In the case of `CCOC(=O)NCCOc1ccc(CC(C)NCC(O)c2cccc(C(F)(F)F)c2)cc1` (stereo not drawn) [Example 20, N-[2-(4-(2-Ethoxycarbonylaminoethoxy)phenyl)-1-methylethyl]-2-hydroxy-2-(3-trifluoromethylphenyl)-ethanamine], the response vs control in vivo at 25.3 mg/kg in experiment [1] (setting [5]) was determined as 115%; in experiment [1] (read-out: Mean Food Intake (%)), 86%. For the same compound, the Emax at 0.03 mg came out at 12% in experiment [2] (setting [10]) and 0% in experiment [2] (setting [11]). The “Reduction in area … (%)” value in experiment [3] (2.5 μ moles/kg po) amounted to 36%.

For the compound `CNCCOc1ccc(CC(C)NCC(O)c2cccc(C(F)(F)F)c2)cc1` (stereo not drawn) [Example 1a, N-[2-(4-(2-Methylaminoethoxy)phenyl)-1-methylethyll-2-hydroxy-2-(3-trifluoromethylphenyl)ethanaminedihydrochloride], the response vs control in vivo at 2.61 mg/kg in experiment [1] (setting [5]) came out at 120%; in experiment [1] (read-out: Mean Food Intake (%)), 94%. Besides, in experiment [4] (13.1 mg/kg p.o. daily for 28 days, Control 19.13), the “g Lipid/Mouse Treated” value stood at 12.54 g Lipid/Mouse.

As to `CC(Cc1ccc(OCCN2CCCCC2)cc1)NCC(O)c1cccc(Cl)c1` (stereo not drawn) [Example 14, N-[2-(4-(2-(1-Piperidine)ethoxy)phenyl)-1-methylethyl]-2-hydroxy-2-(3-chlorophenyl)ethanamine dihydrochloride], the response vs control in vivo at 23.9 mg/kg is 141% in experiment [1] (setting [5]) and 111% in experiment [1] (read-out: Mean Food Intake (%)). Also, in experiment [4] (3.61 mg/kg p.o. daily for 28 days, Control 22.90), the “g Lipid/Mouse Treated” value turned out to be 19.83 g Lipid/Mouse. For the same compound, the Emax at 0.03 mg in experiment [2] (setting [10]) and in experiment [2] (setting [11]) was 0% throughout. Further, the “Reduction in area … (%)” value in experiment [3] (1 μ moles/kg po) is listed as 68%.

As for `CN(C)CCOc1ccc(CCC(C)(C)NCC(O)c2ccccc2)cc1.Cl.Cl` (stereo not drawn) [Example 35, N-[3-(4-(2-Dimethylaminoethoxy)phenyl)-1,1-dimethylpropyl]-2-hydroxy-2-phenylethanamine dihydrochloride], the response vs control in vivo at 23.1 mg/kg was determined as 95% in experiment [1] (setting [5]) and 83% in experiment [1] (read-out: Mean Food Intake (%)). In addition, the “Reduction in area … (%)” value in experiment [3] (250 μ moles/kg po) is 18%.

Take `CNCCOc1ccc(CC(C)NCC(O)c2ccccc2)cc1` (stereo not drawn) [Example 10, N-[2-(4-(2-Methylaminoethoxy)phenyl-1-methylethyl]-2-hydroxy-2-phenylethanaminedihydrobromide]: the response vs control in vivo at 27.3 mg/kg in experiment [1] (setting [5]) turned out to be 118%; in experiment [1] (read-out: Mean Food Intake (%)), 89%. The Emax at 0.01 mg in experiment [2] (setting [8]) was 14%; in experiment [2] (setting [9]), 33%. Further, in experiment [3] (1 μ moles/kg po), the “Reduction in area … (%)” value was found to be 30%.

With `CC(Cc1ccc(OCCNCc2ccccc2)cc1)NCC(O)c1cccc(Cl)c1` (stereo not drawn) [Example 13, N-[2-4-(2-Benzylaminoethoxy)phenyl)-1-methylethyl]-2-hydroxy-2-(3-chlorophenyl)ethanamine dihydrochloride monohydrate], the results for the response vs control in vivo at 29.5 mg/kg in experiment [1] (setting [5]) and in experiment [1] (read-out: Mean Food Intake (%)) were 139% and 78%, respectively. The “Reduction in area … (%)” value in experiment [3] (1 μ moles/kg po) came to 62%.

`CC(C)(C)NCC(O)c1ccc(O)c(CO)c1` (stereo not drawn) [Salbutamol, reference compound]: the Emax in experiment [2] (perfused rat heart, read-out: Heart Rate) is 100%; in experiment [2] (perfused rat heart, read-out: Heart Tension), 100%.

`CNCCOc1ccc(CC(C)NCC(O)c2cccc(F)c2)cc1` (stereo not drawn) [Example 9, N-[2-(4-(2-Methylaminoethoxy)phenyl-1-methylethyl]-2-hydroxy-2-(3-fluorophenyl)ethanaminedihydrobromide]: the response vs control in vivo at 28.3 mg/kg worked out at 129% in experiment [1] (setting [5]) and 109% in experiment [1] (read-out: Mean Food Intake (%)). The values for the Emax at 0.01 mg in experiment [2] (setting [8]) and in experiment [2] (setting [9]) were 73% and 53%, respectively. In experiment [3] (1 μ moles/kg po), the “Reduction in area … (%)” value was found to be 39%.

With `CC(Cc1ccc(OCCN(C)C)cc1)NCC(O)c1cccc(C(F)(F)F)c1.Cl.Cl` (stereo not drawn) [Example 2, N-[2-(4-(2-Dimethylaminoethoxy)phenyl)-1-methylethyl]-2-hydroxy-2-(3-trifluoromethylphenyl)ethanamine dihydrochloride], the response vs control in vivo at 26.9 mg/kg was 127% in experiment [1] (setting [5]) and 98% in experiment [1] (read-out: Mean Food Intake (%)). Also, the Emax at 0.01 mg in experiment [2] (setting [6]) and in experiment [2] (setting [7]) was 0% each time. Also, the “Reduction in area … (%)” value in experiment [3] (5 μ moles/kg po) amounted to 49%.

Regarding `CC(=O)NCCOc1ccc(CC(C)NCC(O)c2cccc(C(F)(F)F)c2)cc1` (stereo not drawn) [Example 21, N-[2-(4-(2-Acetylaminoethoxy)phenyl)-1-methylethyl]-2-hydroxy-2-(3-trifluoromethylphenyl)ethanamine], the response vs control in vivo at 23.6 mg/kg was found to be 119% in experiment [1] (setting [5]) and 102% in experiment [1] (read-out: Mean Food Intake (%)). Moreover, the values for the Emax at 0.03 mg in experiment [2] (setting [10]) and in experiment [2] (setting [11]) were 22% and 24%, respectively. For the same compound, the “Reduction in area … (%)” value in experiment [3] (2.5 μ moles/kg po) is 44%.

Consider `CNCCOc1ccc(CC(C)NCC(O)c2cc3ccccc3o2)cc1.Cl.Cl` (stereo not drawn) [Example 4, N-[2-(4-(2-Methylaminoethoxy)phenyl)-1-methylethyl]-2-hydroxy-2-(2-benzofuranyl) ethanamine dihydrochloride], for which the values for the response vs control in vivo at 24.6 mg/kg in experiment [1] (setting [5]) and in experiment [1] (read-out: Mean Food Intake (%)) were 110% and 76%, respectively. Besides, in experiment [3] (2.5 μ moles/kg po), the “Reduction in area … (%)” value worked out at 18%.

Regarding `CC(Cc1ccc(OCCNS(C)(=O)=O)cc1)NCC(O)c1cccc(C(F)(F)F)c1` (stereo not drawn) [Example 3, N-[2-(4-(2-Methylsulphonylaminoethoxy)phenyl)-1-methylethyl]-2-hydroxy-2-(3-trifluoromethylphenyl)ethanamine], the response vs control in vivo at 25.6 mg/kg in experiment [1] (setting [5]) is 125%; in experiment [1] (read-out: Mean Food Intake (%)) it was 83%. Moreover, the Emax at 0.01 mg amounted to 38% in experiment [2] (setting [8]) and 4% in experiment [2] (setting [9]). In experiment [3] (1 μ moles/kg po), the “Reduction in area … (%)” value is listed as 56%.

As to `CCOC(=O)NCCOc1ccc(CC(C)NCC(O)c2cccc(Cl)c2)cc1` (stereo not drawn) [Example 16, N-[2-(4-(2-Ethoxycarbonylamioethoxy)phenyl)-1-methylethyl]-2-hydroxy-2-(3-chlorophenyl)ethanamine], the response vs control in vivo at 23.4 mg/kg in experiment [1] (setting [5]) stood at 141%; in experiment [1] (read-out: Mean Food Intake (%)) it was 91%. Also, in experiment [3] (1 μ moles/kg po), the “Reduction in area … (%)” value is reported as 68%.

For the origin of these results see patent EP0070133B1, “Secondary phenylethanol amines, processes for their preparation and their pharmaceutical application” (priority 1981, dated 1983).
